Consider eight compounds from patent publication US8628750B2, “Cancer imaging and treatment” (Technische Universitat Munchen, priority 2006, dated 2014).

Like-named read-outs stand apart in the source and are kept apart here. Numbered stars: 1 amine (or outer) side, 2 acyl side, 3 side chain; on linkers, the order of the positions; unused ones are H or OH. Square brackets hold non-standard residues; d marks the D form. Peptide text beside a SMILES is read from it. * marks the point of attachment. X3 = O=C(c1ccc(F)cc1)N(CCC[C@H](N[*:1])C(=O)[*:2])Cc1ccccc1; X1 = CN(CCC[C@H](C(=O)[*:2])N(C)[*:1])C(=O)c1ccc(F)cc1; X2 = O=C([C@H](CCCNCc1cccc2ccccc12)N[*:1])[*:2]; X4 = O=C([C@H](CCCNCc1ccc2ccccc2c1)N[*:1])[*:2]; 2Nal = N[C@@H](Cc1ccc2ccccc2c1)C(=O)O; Benzoyl(4-F) = O=C(c1ccc(F)cc1)*; dOrn = NCCC[C@@H](N)C(=O)O; Orn = NCCC[C@H](N)C(=O)O

Broadly, the IC50 is the midpoint of a concentration-inhibition curve.

Test [1] addresses T1, human CXCR4 (Homo sapiens, UniProt P61073). The experiment in a line: cell-based. It counts as binding. Details: Jurkat cells that endogenously express the CXCR4 receptor; endogenous in cells; host or cells: Jurkat (ATCC).
Method: For receptor binding assays cells were resuspended in PBS/0.2% BSA. A total of 200 μl of the suspension containing 400,000 cells (Jurkat, CMS5) or 200,000 cells (CMS5/CXCR4) were incubated with 25 μl of the tracer solution (containing 3.1 kBq, approx. 0.1 nM) and 25 μl of the diluent or the competitor at different concentrations. […] After shaking for 2 h at room temperature, the incubation was terminated by centrifugation at 700×g and 4° C. for 4 min. Cell pellets were washed once with cold PBS followed by a second centrifugation step or for internalization studies, two times with an acidic wash buffer (20 mM NaOAc, pH5.0). Cell bound radioactivity was determined by using a gamma counter. Experiments were repeated 2-3 times in duplicates or triplicates. IC50 values of the binding curves were calculated by nonlinear regression on a one-site or two-site competition based model using Prism 3.0 (Graph Pad Software, Inc, San Diego). KD and Bmax values were determined by nonlinear regression with the Prism 3.0 according to the manufacturer's protocol.
Test [2] concerns the target T1, human CXCR4.
Method: CXCR4 expression on the cell surface of trypsinized cells was determined using a phycoerythrine (PE)-labeled monoclonal rat antibody with specificity for human CXCR4 (1D9, BD Biosciences Pharmingen, Heidelberg, Germany). Trypsinized cells were washed with FACS buffer (PBS, 0.5% FCS) and 1×10^6 cells were stained with 0.5 μg antibody for 30 min. in the dark at 4° C. Cells were extensively washed with ice-cold FACS buffer and analyzed by flow cytometry. Nonspecific staining was assessed by PE-conjugated rat IgG2b,κ (BD Biosciences Pharmingen, Heidelberg, Germany). […] CXCR-4 staining was plotted against EGFP fluorescence (FL1).
(adapted from protocols published previously)[7, 8]; controls were incubated with diluent (PBS/0.1% BSA). Samples were immediately transferred to ice to avoid further internalization, centrifuged, washed with PBS/0.5% BSA and FACS staining for CXCR4 was performed as indicated above.

T1 sequence (P61073 whole entry): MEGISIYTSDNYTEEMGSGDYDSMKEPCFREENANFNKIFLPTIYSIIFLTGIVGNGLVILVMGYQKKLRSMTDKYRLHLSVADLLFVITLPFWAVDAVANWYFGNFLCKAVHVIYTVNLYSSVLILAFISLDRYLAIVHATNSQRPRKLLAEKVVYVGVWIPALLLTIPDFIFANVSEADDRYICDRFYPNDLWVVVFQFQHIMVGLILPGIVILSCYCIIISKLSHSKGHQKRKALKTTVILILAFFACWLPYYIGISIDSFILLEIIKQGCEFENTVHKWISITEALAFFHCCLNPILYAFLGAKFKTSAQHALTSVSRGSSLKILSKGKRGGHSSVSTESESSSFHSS

Consider `N=C(N)NCCC[C@@H]1NC(=O)[C@H](CCCNC(=N)N)NC(=O)[C@@H](Cc2ccc(O)cc2)NC(=O)CNC(=O)[C@H](Cc2ccc3ccccc3c2)NC(=O)[C@H](Cc2ccc3ccccc3c2)NC1=O` [BL 42, cyc[D-Tyr-Arg-Arg-Nal-Nal-Gly]] (cyclo([2Nal][2Nal]G[dY]RR)), for which, on human CXCR4 [1], the IC50 is greater than 1000 nM.
Take `CN(CCC[C@@H]1C(=O)N[C@@H](CCCNC(=N)N)C(=O)N[C@@H](Cc2ccc3ccccc3c2)C(=O)NCC(=O)N[C@H](Cc2ccc(O)cc2)C(=O)N1C)C(=O)c1ccc(F)cc1` [cyc[D-Tyr-(Me)D-Orn(Me,FB)-Arg-Nal-Gly]] (cyclo([2Nal]G[dY][X1]R)): inhibition against human CXCR4 [1] was half-maximal at 59 nM (IC50).
Compound `N=C(N)NCCC[C@@H]1NC(=O)[C@@H](CCCNC(=O)c2ccc(F)cc2)NC(=O)[C@@H](Cc2ccc(O)cc2)NC(=O)CNC(=O)[C@H](Cc2ccc3ccccc3c2)NC1=O` [cyc[D-Tyr-D-Orn(FB)-Arg-Nal-Gly]] (cyclo([2Nal]G[dY][dOrn](Benzoyl(4-F))R)) had an IC50 on human CXCR4 [1] of 86 nM.
The same measure, in the same setting: the figure for `N=C(N)NCCC[C@@H]1NC(=O)[C@H](CCCN(Cc2ccccc2)C(=O)c2ccc(F)cc2)NC(=O)[C@@H](Cc2ccc(O)cc2)NC(=O)CNC(=O)[C@H](Cc2ccc3ccccc3c2)NC1=O` [cyc[D-Tyr-Orn(Bz,FB)-Arg-Nal-Gly]] (cyclo([2Nal]G[dY][X3]R)) is 100 nM.
Compound `N=C(N)NCCC[C@@H]1NC(=O)[C@H](CCCNC(=O)c2ccc(F)cc2)NC(=O)[C@@H](Cc2ccc(O)cc2)NC(=O)CNC(=O)[C@H](Cc2ccc3ccccc3c2)NC1=O` [cyc[D-Tyr-Orn(FB)-Arg-Nal-Gly]] (cyclo([dY][Orn](Benzoyl(4-F))R[2Nal]G)) returned a 50% inhibitory concentration (IC50) against human CXCR4 [1] of 11 nM.
In turn, `N=C(N)NCCC[C@@H]1NC(=O)[C@H](CCCNCc2cccc3ccccc23)NC(=O)[C@@H](Cc2ccc(O)cc2)NC(=O)CNC(=O)[C@H](Cc2ccc3ccccc3c2)NC1=O` [cyc[D-Tyr-Orn(N1)-Arg-Nal-Gly]] (cyclo([dY][X2]R[2Nal]G)) came in with an IC50 against human CXCR4 [1] of 40 ± 3 nM.
Compound `N=C(N)NCCC[C@@H]1NC(=O)[C@H](CCCNCc2ccc3ccccc3c2)NC(=O)[C@@H](Cc2ccc(O)cc2)NC(=O)CNC(=O)[C@H](Cc2ccc3ccccc3c2)NC1=O` [cyc[D-Tyr-Orn(N2)-Arg-Nal-Gly]] (cyclo([dY][X4]R[2Nal]G)) yielded an IC50 at human CXCR4 [1] of 49 ± 1 nM. The IC50 values of the last two compounds are within 1.5-fold of each other.
SDF-1α: the “cells stained positive for CXCR4 after pre-incubation” value on human CXCR4 [2] (CMS5/CXCR4 cells, 100 nM SDF-1α, 1 hr at 37° C., control-treated […]) was found to be 54.7%. The “mean fluorescence intensity of CXCR4 staining” value at human CXCR4 [2] (CMS5/CXCR4 cells, mock treated 209.0) was 80.5; at human CXCR4 [2] (Jurkat cells, drop from 385.4), 155.4. Moreover, the CXCR4-background staining at human CXCR4 [2] (parental CMS5 cells, in the presence of SDF-1α, from 7.9) is recorded as 2.7%.
